Data from publication PMC8219027, “A small-molecule inhibitor of the BRCA2-RAD51 interaction modulates RAD51 assembly and potentiates DNA damage-induced cell death” (Cell Chemical Biology, 2021).

Experiments:
[1] = tested on: HFL-1; test: cells; conditions: Homo sapiens, HFL1, read-out: Absolute EC50, growth inhibition
[2] = tested on: HCT116 cells (BRCA2 wild-type); test: SRB growth inhibition assay, combination of CAM833 and PARP1 inhibitor AZD2461; format: cell-based, human; conditions: 96 h
Description: (§1) Adherent cell lines (HCT116 and A549 cells) were seeded into flat-bottomed tissue culture 96-well plates in a volume of 150 μL of growth medium. HCT116 cells were seeded at 750 cells per well and A549 cells were seeded at 1000 cells per well. After 24 hours, compounds dissolved in DMSO were diluted in growth medium and were added to cells such that the final DMSO concentration was 1% (v/v) and the final volume in the well was 200 μL. Cells were then incubated in the presence of compound for 96 hours before fixation.
(§2) Medium was removed from cells and 100 μL of cold 1% (v/v) trichloroacetic acid was added for 30 minutes at 4 degrees. The plates were washed three times in tap water and left to dry at room temperature. The fixed cells were stained in a 0.057% sulphorodamine B/1% acetic acid solution (w/v) and incubated at room temperature with agitation for 30 minutes after which the dye was removed and the plates washed in 1% (v/v) acetic acid and left to dry. The dye was then solubilised in 10 mM Tris solution (pH8) and incubated for 30 minutes under agitation. The plates were then read on a PHERAstar plus plate reader (BMG Labtech) using the fluorescence intensity module (540-590 nm). Growth inhibition was calculated relative to DMSO controls and GI50 values were calculated using Graphpad Prism.
For the PARP inhibitor experiments, the SRB method was used as described above to measure growth inhibition with the exception that cells were seeded into 150 μl medium and then a combination of either 25 μl of CAM833, AZD2461 (SelleckChem; #S7029) or DMSO was added to give a total volume of 200 ul in the well.

[3] = Microsomal intrinsic clearance; conditions: human, human microsomes
[4] = tested on: MDA-MB-453; test: cells; conditions: Homo sapiens, MDA-MB-453, read-out: Absolute EC50, growth inhibition
[5] = tested on: T24/83; test: cells; conditions: Homo sapiens, T24/83, read-out: Absolute EC50, growth inhibition
[6] = tested on: PC3; test: cells; conditions: Homo sapiens, PC-3, read-out: Absolute EC50, growth inhibition
[7] = tested on: SCaBER; test: cells; conditions: Homo sapiens, read-out: Absolute EC50, growth inhibition
[8] = tested on: U20S; test: cells; conditions: Homo sapiens, read-out: Absolute EC50, growth inhibition
[9] = tested on: HL-60; test: cells; conditions: Homo sapiens, HL-60, read-out: Absolute EC50, growth inhibition
[10] = tested on: HCT116 cells; test: SRB growth inhibition assay; format: cell-based, human; conditions: for IC50 / GI50: Homo sapiens; for IC50: HCT-116, 96 h, Figure 6D (cell line not given); for GI50: HCT-116, geometrical mean, n = 18
Description: as §1, §2

[11] = tested on: HCT116 colon carcinoma cells; test: Cell-cycle profiling by flow cytometry (propidium iodide); format: cell-based, human; conditions: HCT116, 20 μM CAM833 and 3 Gy IR
Excerpt: Genetic inactivation of RAD51 enhances cellular sensitivity to ionizing radiation, accompanied by cell-cycle arrest at the G2 checkpoint for DNA damage ([Sonoda et al., 1998]; [Su et al., 2008]). We hypothesized that similar effects would be triggered by the exposure of cells to CAM833. […] Over time, there is a drop in the percentage of cells with 4N DNA in both treated and control groups. However, whereas in the control the percentage of cells in the apoptotic subG1 fraction remains below 5% throughout, in the compound-treated cells this rises progressively to peak at 15% at 48 hours (Figure 5D).
Propidium iodide staining solution (PI solution) was used at the following final concentrations: 200 ug/ml RNAase A (Sigma Aldrich, cat# 10109169001), 0.1% Triton-X 100 (v/v) and 20 ug/ml of propidium iodide solution diluted in 1x PBS. HCT116 cells were grown in 6-well plates in a total volume of 2 ml and treated with either test compound or DMSO control for the designated time. After treatment, medium was collected from the cells which were then washed in 1x PBS then removed from the plastic by the addition of in 500 μl Trypsin/EDTA until cells were monodispersed. The trypsin was neutralised by the removed media and the cell suspension was spun at 1000 rpm for 5 minutes. […] Cells were then counted and analysed using a Becton Dickinson LSR II cytometer and FCS Express software.

[12] = tested on: HT1367; test: cells; conditions: Homo sapiens, read-out: Absolute EC50, growth inhibition

COc1ccc([C@H](C)NC(=O)[C@@H]2C[C@@H](O)CN2C(=O)CNC(=O)c2ccc3cc(F)ccc3n2)c(Cl)c1 [CAM833, N-(2-((2S,4R)-2-(((S)-1-(2-chloro-4-methoxyphenyl)ethyl)carbamoyl)-4-hydroxypyrrolidin-1-yl)-2-oxoethyl)-6-fluoroquinoline-2-carboxamide]
EC50 [1]: 98.8 µM | growth inhibition by combination with AZD2461 (in words) ([2]; HCT116, BRCA2 wild-type): potentiated the growth-suppressive effects of PARP1 inhibition | growth inhibition by CAM833 alone (in words) ([2]; HCT116, fixed dose 10 μM or 20 μM): little effect | half-life [3]: 1.28 h | microsomal CLint [3]: 18 ± 4.52 µL/min/mg | EC50 [4]: 48 µM | EC50 [5]: 96.7 µM | EC50 [6]: 91.2 µM | EC50 [7]: 47 µM | EC50 [8]: 40.5 µM | EC50 [9]: 87.7 µM | GI50 with 3 Gy IR lower than GI50 for compound alone ([10]; HCT116): more than 2 fold | IC50 ([10]; 0 Gy IR, SRB 96 h): 63.5 µM | IC50 ([10]; 1 Gy IR, SRB 96 h): 30.4 µM | IC50 ([10]; 2 Gy IR, SRB 96 h): 13 µM | IC50 ([10]; 3 Gy IR, SRB 96 h): 11.8 µM | GI50 ([10]; HCT116, CAM833 alone, 96 h exposure): 38 µM | GI50 ([10]; HCT116, combined with 3 Gy IR): 14 µM | effect of combination with increasing doses of IR on growth suppression (in words) ([10]; fixed 10 μM dose, 0 to 3 Gy IR, SRB 96 h): potentiates | percentage of cells with 4N DNA (in words) ([11]; 4 hours after irradiation): causes an increase | percentage of cells in the apoptotic subG1 fraction, peak ([11]; at 48 hours): 15% | EC50 [12]: 104 µM
